The record followed here is patent US8304447B2, “2-acylaminopropoanol-type glucosylceramide synthase inhibitors” (Genzyme Corporation, priority 2007, dated 2012).

Structures are written as SMILES. pIC50: −log10 of the molar value. Read-outs that look alike come from different tables or passages of the source.

This assay concerns GM3. As to the kind of experiment: GM3 Elisa assay. It counts as cell-based. The note with it: B16-FO cells, read-out: IC50_uM_Mean. A digest of the protocol: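 Cellular GM3 ELISA: fixed cells probed with monoclonal anti-GM3 (NeuAc), HRP-conjugated anti-IgM and fluorogenic Quantablu substrate, read at Ex 325/Em 420. Cells were B16-FO, treated 2 days after a 6 h attachment on collagen-coated wells.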

Where [1] appears, read: 48 h, Table 1, 2 days incubation.
[2] abbreviates: 48 h, Table 2, 2 days incubation.

For the molecule `COc1ccc(C(=O)CCCCCC(=O)N[C@H](CN2C3CCC2CC3)[C@H](O)c2ccc(OC(C)C)cc2)cc1` [Compound 377], the pIC50 (Table 3 (IC 50 Values)) is at least 7.00.
On the same count and under the same terms, next, `CCCCOc1ccc([C@@H](O)[C@@H](CN2CC[C@H](O)C2)NC(=O)CCCCCCCOC)cc1` [Compound 586]: at least 7.00; `COC[C@H]1CCCN1C[C@@H](NC(=O)CCCCCC(=O)c1ccc(OC)cc1)[C@H](O)c1ccc2c(c1)OCCO2` [Compound 539]: 5.00 to 5.52.
Regarding `O=C(CCSc1ccccc1)N[C@H](CN1CCCC1)[C@H](O)c1ccc2c(c1)OCCO2` [Compound 32, N-((1R,2R)-1-(2,3-dihydrobenzo[β][1,4]dioxin-6-yl)-1-hydroxy-3-(pyrrolidin-1-yl)propan-2-yl)-3-(phenylthio)propanamide], the pIC50 under setting [1] is at least 7.00.
Consider `COc1ccc(C(=O)CCCCCC(=O)N[C@H](CN2CCCC2)[C@H](O)c2ccc(OC)c(OC)c2)cc1` [Compound 276], for which, under setting [2], the pIC50 is 6.00 to 7.00.
Take `O=C(Cc1ccc(-c2ccccc2)cc1)N[C@H](CN1CCCC1)[C@H](O)c1ccc2c(c1)OCCO2` [Compound 23, 2-(biphenyl-4-yl)-N-((R,2R)-1-(2,3-dihydrobenzo[β][1,4]dioxin-6-yl)-1-hydroxy-3-(pyrrolidin-1-yl)propan-2-yl)acetamide]: the pIC50 under setting [1] was at least 7.00.
As to `COc1ccc([C@@H](O)[C@@H](CN2CCCC2)NC(=O)CCCCCC(C)(C)OC)cc1` [Compound 273], the pIC50 under setting [2] was 6.00 to 7.00.
As for `COc1ccc(OCCC(=O)N(Cc2cccc3ccncc23)[C@H](CN2CCCC2)[C@H](O)c2ccc(O)cc2)cc1` [Compound 719], for the setting “Table 3 (IC 50 Values)”, the pIC50 was 5.00 to 5.52.
Still for that read-out and setting: then `O=C(Cc1ccc(OC(F)(F)F)cc1)N[C@H](CN1CCCC1)[C@H](O)c1ccc2c(c1)OC(F)(F)O2` [Compound 410], with 5.00 to 5.52.
For `COc1ccc([C@@H](O)[C@@H](CN2CCCC2)NC(=O)CCCC(=O)c2ccc(OC(C)C)cc2)cc1` [Compound 270, 5-(4-Isopropoxy-phenyl)-5-oxo-pentanoic acid [2-hydroxy-2-(4-methoxy-phenyl)-1-pyrrolidin-1-ylmethyl-ethyl]amide], the pIC50 under setting [2] is at least 7.00.
As for `COc1ccc(C(=O)CCCCC(=O)N[C@H](CN2CC[C@H](O)C2)[C@H](O)c2ccc(OCCCCF)cc2)cc1` [Compound 495], where the note is “Table 3 (IC 50 Values)”, the pIC50 is at least 7.00.
With `COc1ccc(C(=O)CCCCCC(=O)N[C@H](CN2CCCC2)[C@H](O)c2ccc(OC(F)(F)F)cc2)cc1` [Compound 666], the pIC50 (Table 3 (IC 50 Values)) was 6.00 to 7.00.
As for `O=C1CCC(=O)N1[C@H](CN1CCCC1)[C@H](O)c1ccc2c(c1)OCCO2` [Compound 670], where the note is “Table 3 (IC 50 Values)”, the pIC50 is 5.00 to 5.52.
Same read-out and setting: next, `COC1CCC(OCCC(=O)N[C@H](CN2C(C)CCCC2C)[C@@H](O)c2ccc3c(c2)OCCO3)CC1` (stereo partly shown) [Compound 598]: 5.00 to 5.52; `O=C(N[C@H](CN1CCCC1)[C@H](O)c1ccc2c(c1)OC(F)(F)O2)OCc1ccccc1` [Compound 404]: 5.00 to 5.52.
On to `O=C(NCCc1cccs1)N[C@H](CN1CCCC1)[C@H](O)c1ccc2c(c1)OCCO2` [Compound 287, 1-((1R,2R)-1-(2,3-dihydrobenzo[β][1,4]dioxin-6-yl)-1-hydroxy-3-(pyrrolidin-1-yl)propan-2-yl)-3-(2-(thiophen-2-yl)ethyl)urea], for which the pIC50 under setting [2] is 5.52 to 6.00.
With `COc1ccc(C(=O)CCCCC(=O)N[C@H](CN2CCCC2)[C@H](O)c2sccc2C)cc1` [Compound 362], the pIC50 (Table 3 (IC 50 Values)) was 5.00 to 5.52.
Take `COCCOCCOc1ccc([C@@H](O)[C@@H](CN2CCCC2)NC(=O)CCCCC(=O)c2ccc(OC)cc2)cc1` [Compound 415]: the pIC50 (Table 3 (IC 50 Values)) was 6.00 to 7.00.
For `COc1ccc(C(=O)CCCCC(=O)N[C@H](CN2CCCC2)[C@H](O)c2ccc(OC)c(F)c2)cc1` [Compound 344], under “Table 3 (IC 50 Values)”, the pIC50 was at least 7.00.
The same measure, in the same setting: then `COc1ccc(C(=O)CCCCCC(=O)N[C@H](CN2CCCC2)[C@H](O)c2ccc3c(c2)OC(F)(F)O3)cc1` [Compound 409], with 6.00 to 7.00.
With `O=C(N[C@H](CN1CCCC1)[C@H](O)c1ccc2c(c1)OCCO2)c1cc(-c2cccs2)on1` [Compound 90, N-((1R,2R)-1-(2,3-dihydrobenzo[β][1,4]dioxin-6-yl)-1-hydroxy-3-(pyrrolidin-1-yl)propan-2-yl)-5-(thiophen-2-yl)isoxazole-3-carboxamide], the pIC50 under setting [1] is 6.00 to 7.00.
For the molecule `O=C(CCCCNC(=O)c1ccccc1)N[C@H](CN1CCCC1)[C@H](O)c1ccc2c(c1)OCCO2` [Compound 104, N-(5-((1R,2R)-1-(2,3-dihydrobenzo[β][1,4]dioxin-6-yl)-1-hydroxy-3-(pyrrolidin-1-yl)propan-2-ylamino)-5-oxopentyl)benzamide], under setting [1], the pIC50 is 6.00 to 7.00.
Turning to `COc1ccc([C@@H](OC(=O)Cc2ccc(C(F)(F)F)cc2)[C@@H](CN2CCCC2)NC(=O)Cc2ccc(C(F)(F)F)cc2)cc1` [Compound 250], under setting [2], the pIC50 is 6.00 to 7.00.
For `COc1ccc(C(=O)CCCC(=O)N[C@H](CN2CCCC2)[C@H](O)c2ccc3c(c2)OCCO3)cc1` [Compound 191, N-((1R,2R)-1-(2,3-dihydrobenzo[β][1,4]dioxin-6-yl)-1-hydroxy-3-(pyrrolidin-1-yl)propan-2-yl)-5-(4-methoxyphenyl)-5-oxopentanamide (2R,3R)-2,3-dihydroxysuccinate], under setting [1], the pIC50 is at least 7.00.
Regarding `COc1ccc(C(=O)CCCC(=O)N[C@H](CN2CCCC2)[C@H](O)c2ccc(OC)c(F)c2)cc1` [Compound 343], the pIC50 (Table 3 (IC 50 Values)) was 6.00 to 7.00.
Same read-out and setting: next, `COc1ccc(C(=O)CCCCC(=O)N(Cc2ccc(OC(F)F)cc2)[C@H](CN2CCCC2)[C@H](O)c2ccc(O)cc2)cc1` [Compound 427]: 5.00 to 5.52; `O=C(CCOc1ccnc2ccccc12)N[C@H](CN1CCCC1)[C@H](O)c1ccc2c(c1)OCCO2` [Compound 692]: 6.00 to 7.00.
Same read-out and setting: next, `O=C(CCCCOC1CCOCC1)N[C@H](CN1CC[C@@H](F)C1)[C@H](O)c1ccc(OCc2ccccc2)cc1` [Compound 575]: 6.00 to 7.00; `COc1ccc(OCCC(=O)N[C@@H](CN2CCCC2)[C@H](O)c2ccc3c(c2)OCCO3)cc1` [Compound 675]: 5.00 to 5.52.
On the same count and under the same terms, then `COc1ccc([C@@H](O)[C@@H](CN2CCCC2)NC(=O)CCCCCC(C)=O)cc1` [Compound 664], with 5.52 to 6.00.
Consider `O=C(CSc1ccccc1)N[C@H](CN1CCCC1)[C@H](O)c1ccc2c(c1)OCCO2` [Compound 11, N-((1R,2R)-1-(2,3-dihydrobenzo[β][1,4]dioxin-6-yl)-1-hydroxy-3-(pyrrolidin-1-yl)propan-2-yl)-2-(phenylthio)acetamide], for which the pIC50 under setting [1] is at least 7.00.
For the molecule `COc1ccc(C(=O)CCCC(=O)N[C@H](CN2CCCC2)[C@H](O)c2ccccc2OC)cc1` [Compound 701], the pIC50 (Table 3 (IC 50 Values)) was 5.52 to 6.00.
In the case of `COc1cccc(-c2ccc(CC(=O)N[C@H](CN3CCCC3)[C@H](O)c3ccc4c(c3)OCCO4)cc2)c1` [Compound 63, N-((1R,2R)-1-(2,3-dihydrobenzo[β][1,4]dioxin-6-yl)-1-hydroxy-3-(pyrrolidin-1-yl)propan-2-yl)-2-(3 methoxybiphenyl-4-yl)acetamide], the pIC50 under setting [1] is at least 7.00.
Take `CCCCCCCCCCCCCCCC(=O)N[C@H](CNCc1ccco1)[C@H](O)c1ccc2c(c1)OCCO2` [Compound 679]: the pIC50 (Table 3 (IC 50 Values)) was 5.00 to 5.52.
As for `COc1ccc(OCCC(=O)N[C@H](CN2CCCC2)[C@H](O)c2ccc(OCCOc3cccc(C)c3)cc2)cc1` [Compound 722], the pIC50 (Table 3 (IC 50 Values)) was at least 7.00.
On the same count and under the same terms, then `COc1ccc(C(=O)CCCCC(=O)N[C@H](CN2CCCC2)[C@H](O)c2ccc3c(c2)OC(F)(F)C(F)(F)O3)cc1` [Compound 403], with 5.52 to 6.00; and `COc1ccc(OCCC(=O)N[C@H](CN2C3CCC2CC3)[C@H](O)c2ccc3c(c2)OCCO3)cc1` [Compound 523], with 6.00 to 7.00.
With `COc1ccc(C(=O)CCCCC(=O)N[C@H](CN2CCCC2)[C@H](O)c2ccc(Cl)cc2)cc1` [Compound 384], where the note is “Table 3 (IC 50 Values)”, the pIC50 was 6.00 to 7.00.
Consider `CC(=O)CCc1ccc(OCCC(=O)N[C@H](CN2CCCC2)[C@H](O)c2ccc3c(c2)OCCO3)cc1` [Compound 193, N-((1R,2R)-1-(2,3-dihydrobenzo[b][1,4]dioxin-6-yl)-1-hydroxy-3-(pyrrolidin-1-yl)propan-2-yl)-3-(4-(3-oxobutyl)phenoxy)propanamide (2R,3R)-2,3-dihydroxysuccinate], for which the pIC50 under setting [1] is 6.00 to 7.00.
For `CCCCCCCC(=O)N[C@H](CN1CCC(CN2CCCC2)C1)[C@H](O)c1ccc2c(c1)OCCO2` (stereo partly shown) [Compound 313], the pIC50 under setting [2] is at least 7.00.
For the molecule `O=C(Cc1ccc(OC(F)(F)F)cc1)N[C@H](CN1CCOCC1)[C@H](O)c1ccc2c(c1)OCCO2` [Compound 258], the pIC50 under setting [2] is 5.00 to 5.52.
For the molecule `COc1ccc(C(=O)CCCCC(=O)N[C@H](CN2CCCC2)[C@H](O)c2ccc(OC)c(C)c2)cc1` [Compound 387], the pIC50 (Table 3 (IC 50 Values)) was 6.00 to 7.00.
The same measure, in the same setting: then `COc1ccc(C(=O)CCCCCC(=O)N[C@H](CN2CC[C@H](O)C2)[C@H](O)c2ccc(OCCCCF)cc2)cc1` [Compound 497], with at least 7.00.
For `Cc1ccc(C(=O)CCCC(=O)N[C@H](CN2CCCC2)[C@H](O)c2ccc3c(c2)OCCO3)cc1` [Compound 283, N-((1R,2R)-1-(2,3-dihydrobenzo[b][1,4]dioxin-6-yl)-1-hydroxy-3-(pyrrolidin-1-yl)propan-2-yl)-5-oxo-5-p-tolylpentanamide], the pIC50 under setting [2] is at least 7.00.
As for `COCCOc1ccc(C(=O)CCCCC(=O)N[C@H](CN2CCCC2)[C@H](O)c2ccc(OC(C)C)cc2)cc1` [Compound 453], the pIC50 (Table 3 (IC 50 Values)) was at least 7.00.
On the same count and under the same terms, next, `CCCCCCOc1ccc([C@@H](O)[C@@H](CN2CC[C@@H](F)C2)NC(=O)CCCCC(=O)c2ccc(OC)cc2)cc1` [Compound 369]: at least 7.00.
In the case of `COc1ccc(CCC(=O)N[C@H](CN2CCCC2CN2CCCC2)[C@H](O)c2ccc3c(c2)OCCO3)cc1Cl` (stereo partly shown) [Compound 245], the pIC50 under setting [2] is 5.00 to 5.52.
As for `COc1ccc([C@@H](O)[C@@H](CO)NC(=O)OCc2ccccc2)c(OC)c1` [Compound 352], under “Table 3 (IC 50 Values)”, the pIC50 was 5.00 to 5.52.
The same measure, in the same setting: then `CC(O)(CCCCCC(=O)N[C@H](CN1CCCC1)[C@H](O)c1ccc2c(c1)OCCO2)C1CC1` (stereo partly shown) [Compound 629], with 6.00 to 7.00.
